Test results taken from PMC9061857, “A fluorogenic probe for granzyme B enables in-biopsy evaluation and screening of response to anticancer immunotherapies” (Nature Communications, 2022).
Where no end group is shown, it is not given here.

System: OVA-EL4 cancer cells
Test: Time-course flow cytometry of OVA-EL4 cancer cells with OT-I CD8+ T cells
Format: cell-based
Set-up: unit not given here
Conditions: H5 10 μM, Sytox Blue 1 μM
From the text: Legends: viable (gray), H5-stained (green), apoptotic (red). […] Black arrows highlight T cells, yellow arrows highlight H5-stained intracellular GzmB puncta. […] Scale bar: 10 μm. f Flow cytometric analysis of OVA-EL4 cancer cells from experiments in e. Data as means ± SEM (n = 3). P-values from two-tailed t-tests. Source data (c, f) provided as a Source Data file.
We utilized CD8+ T cells expressing the OT-I transgenic receptor, which specifically targets cells presenting the OVA-derived […] antigen in the context of H-2kb and co-cultured them with […]-pulsed EL4 cancer cells (Fig. S11). T cells were counterstained with Cell Tracker Orange for ease of identification and incubated with probe H5 and the cell death marker Sytox Blue before time-lapse microscopy.

For “IEPDAL [H5, FRET hexapeptide IEPDAL with BODIPY-FL fluorophore at the N-terminal end and Dabcyl quencher]”, the “H5+DAPI+ OVA-EL4 cancer cells” value (0 h, Data 1) was 0.47, the “H5+DAPI- OVA-EL4 cancer cells” value (0 h, Data 1) was 1.17 and the “H5-DAPI+ OVA-EL4 cancer cells” value (0 h, Data 1) was 0.04. The “H5+DAPI+ OVA-EL4 cancer cells” value (0 h, Data 2) was 0.46, the “H5+DAPI- OVA-EL4 cancer cells” value (0 h, Data 2) was 0.35 and the “H5-DAPI+ OVA-EL4 cancer cells” value (0 h, Data 2) was 0.011. For the same substance, the “H5+DAPI+ OVA-EL4 cancer cells” value (0 h, Data 3) was 0.43, the “H5+DAPI- OVA-EL4 cancer cells” value (0 h, Data 3) was 0.23 and the “H5-DAPI+ OVA-EL4 cancer cells” value (0 h, Data 3) was 0.00. The “H5+DAPI+ OVA-EL4 cancer cells” value (1 h, Data 1) was 0.60, the “H5+DAPI- OVA-EL4 cancer cells” value (1 h, Data 1) was 1.57 and the “H5-DAPI+ OVA-EL4 cancer cells” value (1 h, Data 1) was 0.03. For the same substance, the “H5+DAPI+ OVA-EL4 cancer cells” value (1 h, Data 2) was 0.80, the “H5+DAPI- OVA-EL4 cancer cells” value (1 h, Data 2) was 1.83 and the “H5-DAPI+ OVA-EL4 cancer cells” value (1 h, Data 2) was 0.053. The “H5+DAPI+ OVA-EL4 cancer cells” value (1 h, Data 3) was 0.49, the “H5+DAPI- OVA-EL4 cancer cells” value (1 h, Data 3) was 1.53 and the “H5-DAPI+ OVA-EL4 cancer cells” value (1 h, Data 3) was 0.026. For the same substance, the “H5+DAPI+ OVA-EL4 cancer cells” value (2 h, Data 1) was 0.82, the “H5+DAPI- OVA-EL4 cancer cells” value (2 h, Data 1) was 3.01 and the “H5-DAPI+ OVA-EL4 cancer cells” value (2 h, Data 1) was 0.047. The “H5+DAPI+ OVA-EL4 cancer cells” value (2 h, Data 2) was 0.66, the “H5+DAPI- OVA-EL4 cancer cells” value (2 h, Data 2) was 2.90 and the “H5-DAPI+ OVA-EL4 cancer cells” value (2 h, Data 2) was 0.06. The “H5+DAPI+ OVA-EL4 cancer cells” value (2 h, Data 3) was 0.58, the “H5+DAPI- OVA-EL4 cancer cells” value (2 h, Data 3) was 2.81 and the “H5-DAPI+ OVA-EL4 cancer cells” value (2 h, Data 3) was 0.038. For the same substance, the “H5+DAPI+ OVA-EL4 cancer cells” value (3 h, Data 1) was 2.18, the “H5+DAPI- OVA-EL4 cancer cells” value (3 h, Data 1) was 2.12 and the “H5-DAPI+ OVA-EL4 cancer cells” value (3 h, Data 1) was 0.05. For the same substance, the “H5+DAPI+ OVA-EL4 cancer cells” value (3 h, Data 2) was 1.34, the “H5+DAPI- OVA-EL4 cancer cells” value (3 h, Data 2) was 2.16 and the “H5-DAPI+ OVA-EL4 cancer cells” value (3 h, Data 2) was 0.07. For the same substance, the “H5+DAPI+ OVA-EL4 cancer cells” value (3 h, Data 3) was 1.51, the “H5+DAPI- OVA-EL4 cancer cells” value (3 h, Data 3) was 1.83 and the “H5-DAPI+ OVA-EL4 cancer cells” value (3 h, Data 3) was 0.06. For the same substance, the “H5+DAPI+ OVA-EL4 cancer cells” value (4 h, Data 1) was 3.60, the “H5+DAPI- OVA-EL4 cancer cells” value (4 h, Data 1) was 0.63 and the “H5-DAPI+ OVA-EL4 cancer cells” value (4 h, Data 1) was 0.09. For the same substance, the “H5+DAPI+ OVA-EL4 cancer cells” value (4 h, Data 2) was 3.55, the “H5+DAPI- OVA-EL4 cancer cells” value (4 h, Data 2) was 0.46 and the “H5-DAPI+ OVA-EL4 cancer cells” value (4 h, Data 2) was 0.05. The “H5+DAPI+ OVA-EL4 cancer cells” value (4 h, Data 3) was 2.80, the “H5+DAPI- OVA-EL4 cancer cells” value (4 h, Data 3) was 0.60 and the “H5-DAPI+ OVA-EL4 cancer cells” value (4 h, Data 3) was 0.026. For the same substance, the “H5+DAPI+ OVA-EL4 cancer cells” value (5 h, Data 1) was 8.18, the “H5+DAPI- OVA-EL4 cancer cells” value (5 h, Data 1) was 0.17 and the “H5-DAPI+ OVA-EL4 cancer cells” value (5 h, Data 1) was 0.053. For the same substance, the “H5+DAPI+ OVA-EL4 cancer cells” value (5 h, Data 2) was 8.22, the “H5+DAPI- OVA-EL4 cancer cells” value (5 h, Data 2) was 0.12 and the “H5-DAPI+ OVA-EL4 cancer cells” value (5 h, Data 2) was 0.10. For the same substance, the “H5+DAPI+ OVA-EL4 cancer cells” value (5 h, Data 3) was 16.90, the “H5+DAPI- OVA-EL4 cancer cells” value (5 h, Data 3) was 0.10 and the “H5-DAPI+ OVA-EL4 cancer cells” value (5 h, Data 3) was 0.14. For the same substance, the “H5+DAPI+ OVA-EL4 cancer cells” value (6 h, Data 1) was 11.60, the “H5+DAPI- OVA-EL4 cancer cells” value (6 h, Data 1) was 0.09 and the “H5-DAPI+ OVA-EL4 cancer cells” value (6 h, Data 1) was 0.10. The “H5+DAPI+ OVA-EL4 cancer cells” value (6 h, Data 2) was 10.50, the “H5+DAPI- OVA-EL4 cancer cells” value (6 h, Data 2) was 0.11 and the “H5-DAPI+ OVA-EL4 cancer cells” value (6 h, Data 2) was 0.10. For the same substance, the “H5+DAPI+ OVA-EL4 cancer cells” value (6 h, Data 3) was 18.10, the “H5+DAPI- OVA-EL4 cancer cells” value (6 h, Data 3) was 0.076 and the “H5-DAPI+ OVA-EL4 cancer cells” value (6 h, Data 3) was 0.07.
